Data as given in ChEMBL document CHEMBL4665751, “Discovery of Clinical Candidate (5-(3-(4-Chlorophenoxy)prop-1-yn-1-yl)-3-hydroxypicolinoyl)glycine, an Orally Bioavailable Prolyl Hydroxylase Inhibitor for the Treatment of Anemia” (J Med Chem, 2020).
The source made the active and inactive calls. The rule behind the calls is not given here.

Legend:
[1] = Genotoxicity in Salmonella typhimurium TA100 at 62.5 to 1000 ug incubated for 48 to 50 hrs in presence of S9 fraction by Ames test; format: toxicity, subcellular, Salmonella enterica subsp. enterica serovar Typhimurium; conditions: dose 62.5-1000 µg, time 48-50 hrs
[2] = Genotoxicity in Salmonella typhimurium TA100 at 62.5 to 1000 ug incubated for 48 to 50 hrs in absence of S9 fraction by Ames test; format: toxicity, Salmonella enterica subsp. enterica serovar Typhimurium; conditions: in vivo; dose 62.5-1000 µg, time 48-50 hrs
[3] = Acute toxicity in Sprague-Dawley rat assessed as change in growth at 15 to 200 mg/kg, po administered every alternate days for 14 days; format: organism-based; conditions: in vivo, 336 h, dose 15-200 mg/kg, time 14 day
[4] = Hepatotoxicity in male Sprague-Dawley rat assessed as change in alanine aminotransferase level in blood at 15 to 200 mg/kg, po administered every alternate days for 2 weeks measured on day 14; format: toxicity, organism-based; conditions: in vivo, 336 h, dose 15-200 mg/kg, time 14 day
[5] = Nephrotoxicity in Sprague-Dawley rat assessed as change in urea level in blood at 15 to 200 mg/kg, po administered every alternate days for 2 weeks measured on day 14; format: toxicity, organism-based; conditions: in vivo, 336 h, dose 15-200 mg/kg, time 14 day
[6] = Acute toxicity in male Sprague-Dawley rat assessed as change in ratio of epididymis to body weight at 15 to 200 mg/kg, po administered every alternate days for 2 weeks measured on day 14; format: organism-based; conditions: in vivo, 336 h, dose 15-200 mg/kg, time 14 day
[7] = Acute toxicity in female Sprague-Dawley rat assessed as change in ratio of ovary to body weight at 15 to 200 mg/kg, po administered every alternate days for 2 weeks measured on day 14; format: organism-based; conditions: in vivo, 336 h, dose 15-200 mg/kg, time 14 day
[8] = Acute toxicity in Sprague-Dawley rat assessed as change in ratio of thymus to body weight at 15 to 200 mg/kg, po administered every alternate days for 2 weeks measured on day 14; format: organism-based; conditions: in vivo, 336 h, dose 15-200 mg/kg, time 14 day
[9] = Acute toxicity in Sprague-Dawley rat assessed as change in ratio of heart to body weight at 15 to 200 mg/kg, po administered every alternate days for 2 weeks measured on day 14; format: organism-based; conditions: in vivo, 336 h, dose 15-200 mg/kg, time 14 day
[10] = Acute toxicity in Sprague-Dawley rat assessed as effect on food intake at 15 to 200 mg/kg, po administered every alternate day for 14 day; format: organism-based; conditions: in vivo, 336 h, dose 15-200 mg/kg
Cytochrome P450 2D6 = Cytochrome P450 2D6 (Homo sapiens, UniProt P10635); test: Inhibition of CYP2D6 (unknown origin) using dextromethorphan as substrate preincubated for 5 mins followed by addition of NADPH measured after 20 mins by LC-MS/MS analysis; format: ADME
[11] = Half-life in monkey liver microsome at 1 uM preincubated for 5 mins followed by NADPH addition measured up to 120 mins by LC-MS/MS analysis; format: ADME, Macaca mulatta; conditions: rhesus monkey, liver microsomes, time <=125 min
[12] = Half-life in mouse liver microsome at 1 uM preincubated for 5 mins followed by NADPH addition measured up to 120 mins by LC-MS/MS analysis; format: ADME; conditions: liver microsomes, time <=125 min
[13] = Intrinsic clearance in human liver microsome at 1 uM preincubated for 5 mins followed by NADPH addition measured up to 120 mins by LC-MS/MS analysis; format: ADME; conditions: microsomes, 2 h, time <=125 min
[14] = Intrinsic clearance in mouse liver microsome at 1 uM preincubated for 5 mins followed by NADPH addition measured up to 120 mins by LC-MS/MS analysis; format: ADME; conditions: microsomes, 2 h, time <=125 min
[15] = Apparent volume of distribution in Beagle dog at 0.5 mg/kg, iv by LC-MS/MS analysis; format: ADME, organism-based, Canis lupus familiaris; conditions: in vivo, read-out: Vz
[16] = AUC (0 to infinity) in Beagle dog at 0.5 mg/kg, iv by LC-MS/MS analysis; format: ADME, organism-based, Canis lupus familiaris; design: time infinity, route intravenous, dose 0.5 mg/kg; conditions: in vivo
[17] = Apparent volume of distribution in Beagle dog at 2 mg/kg, ig by LC-MS/MS analysis; format: ADME, organism-based, Canis lupus familiaris; conditions: in vivo, po
[18] = Apparent volume of distribution in Sprague-Dawley rat at 1 mg/kg, iv by LC-MS/MS analysis; format: ADME, organism-based; conditions: in vivo, read-out: Vz
[19] = Oral bioavailability in Sprague-Dawley rat at 2 mg/kg by LC-MS/MS analysis; format: ADME, organism-based; conditions: in vivo
[20] = AUC (0 to t) in Sprague-Dawley rat at 1 mg/kg, iv by LC-MS/MS analysis; format: ADME, organism-based; design: dose 1 mg/kg; conditions: in vivo
[21] = MRT (0 to infinity) in Sprague-Dawley rat at 2 mg/kg, ig by LC-MS/MS analysis; format: ADME, organism-based; conditions: in vivo, po
[22] = Half-life in Sprague-Dawley rat at 2 mg/kg, ig by LC-MS/MS analysis; format: ADME, organism-based; conditions: in vivo, po
[23] = Clearance in Sprague-Dawley rat at 2 mg/kg, ig by LC-MS/MS analysis; format: ADME, organism-based; conditions: in vivo, po
[24] = AUC (0 to t) in Sprague-Dawley rat at 2 mg/kg, ig by LC-MS/MS analysis; format: ADME, organism-based; design: dose 2 mg/kg; conditions: in vivo, po
[25] = Cmax in Sprague-Dawley rat at 2 mg/kg, ig by LC-MS/MS analysis; format: ADME, organism-based; design: route […], dose 2 mg/kg; conditions: in vivo, po
Mus musculus = test: In vivo inhibition of PHD2 in C57BL/6 mouse assessed as upregulation of EPO plasma level by measuring EPO level at 15 mg/kg, po measured after 4 hrs by ELISA; format: functional, organism-based
Egl nine homolog 1 [26] = target: T1, Egl nine homolog 1 (Homo sapiens, UniProt Q9GZT9); test: Inhibition of PHD2 in human Hep3B cells assessed as upregulation of EPO mRNA expression at 50 uM measured after 10 hrs by Trizol reagent based qRT-PCR analysis relative to control; format: cell-based
Egl nine homolog 1 [27] = target: T1, Egl nine homolog 1; test: Inhibition of PHD2 in human MCF7 cells assessed as upregulation of HIFalpha expression at 25 uM incubated for 24 hrs by firefly/renilla luciferase reporter gene assay relative to control; format: cell-based
Homo sapiens [28] = species: Homo sapiens; test: Selectivity index, ratio of IC50 for KDM3A (unknown origin) in presence of peptide substrate incubated for 30 mins by alpha screen assay to IC50 for PHD2 (unknown origin) by O-phenyl enediamine(OPD) based fluorescence assay
Homo sapiens [29] = species: Homo sapiens; test: Selectivity index, ratio of IC50 for PHD1 (unknown origin) by O-phenyl enediamine(OPD) based fluorescence assay to IC50 for PHD2 (unknown origin) by O-phenyl enediamine(OPD) based fluorescence assay

T1 sequence (Q9GZT9 2-426 limits assumed): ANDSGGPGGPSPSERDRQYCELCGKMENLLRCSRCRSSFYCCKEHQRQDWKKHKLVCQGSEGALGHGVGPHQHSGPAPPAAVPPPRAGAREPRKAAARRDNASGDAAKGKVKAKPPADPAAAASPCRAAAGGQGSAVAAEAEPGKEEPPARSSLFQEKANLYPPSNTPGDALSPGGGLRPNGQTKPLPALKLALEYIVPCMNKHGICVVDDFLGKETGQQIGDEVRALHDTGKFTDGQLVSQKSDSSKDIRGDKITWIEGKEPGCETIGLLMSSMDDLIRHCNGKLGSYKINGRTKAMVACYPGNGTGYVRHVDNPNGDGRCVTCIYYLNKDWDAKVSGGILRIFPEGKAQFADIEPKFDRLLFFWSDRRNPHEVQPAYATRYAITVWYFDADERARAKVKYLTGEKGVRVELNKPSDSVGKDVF
Chain of Cytochrome P450 2D6 (P10635 whole entry): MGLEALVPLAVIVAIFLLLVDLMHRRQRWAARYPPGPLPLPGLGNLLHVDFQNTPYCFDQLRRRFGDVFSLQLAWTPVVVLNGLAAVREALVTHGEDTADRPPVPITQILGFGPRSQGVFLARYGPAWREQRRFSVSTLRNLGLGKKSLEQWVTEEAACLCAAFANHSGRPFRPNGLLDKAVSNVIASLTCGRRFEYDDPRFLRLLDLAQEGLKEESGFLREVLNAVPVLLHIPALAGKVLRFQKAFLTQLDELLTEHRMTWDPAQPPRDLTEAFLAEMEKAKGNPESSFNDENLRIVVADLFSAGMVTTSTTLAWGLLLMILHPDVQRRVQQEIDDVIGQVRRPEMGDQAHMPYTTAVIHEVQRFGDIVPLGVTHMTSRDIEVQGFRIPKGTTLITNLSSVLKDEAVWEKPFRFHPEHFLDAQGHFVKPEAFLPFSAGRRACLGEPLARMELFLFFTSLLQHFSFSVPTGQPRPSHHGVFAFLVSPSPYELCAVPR

Structure (SMILES): O=C(O)CNC(=O)c1ncc(C#CCOc2ccc(Cl)cc2)cc1O [DDO-3055]
- Activity [1]: Non-Toxic
- Activity [2]: Non-Toxic
- Activity [3]: Non-Toxic
- Activity [4]: Non-Toxic
- Activity [5]: Non-Toxic
- Activity [6]: Non-Toxic
- Activity [7]: Non-Toxic
- Activity [8]: Non-Toxic
- Activity [9]: Non-Toxic
- Activity [10]: Non-Toxic
- IC50 (Cytochrome P450 2D6): > 30 µM
- half-life at 1 µM [11]: > 1.65 h
- half-life at 1 µM [12]: > 2.32 h
- CLH [13]: < 0.01 mL/min/kg
- CLH [14]: < 0.01 mL/min/kg
- Vd [15]: 3.34 L/kg
- AUC(0-inf) [16]: 636 ng·h/mL
- Vz [17]: 8.417 L/kg
- Vd [18]: 2.52 L/kg
- bioavailability [19]: 55.7%
- AUC(0-t) [20]: 4710 ng·h/mL
- MRT inf [21]: 9.43 h
- half-life [22]: 6.44 h
- CL/F [23]: 7.3 mL/min/kg
- AUC(0-t) [24]: 4800 ng·h/mL
- Cmax [25]: 1030 ng/mL
- inhibition (Mus musculus): Active
- fold change (FC) (Egl nine homolog 1 [26]): 7
- fold change (FC) (Egl nine homolog 1 [27]): 4
- Ratio IC50 (Homo sapiens [28]): > 1560
- Ratio IC50 (Homo sapiens [29]): 29
